Like-named read-outs stand apart in the source and are kept apart here.
Target: recombinant human GST-Syk (Homo sapiens (Human), UniProt P43405)
Test: Homogeneous Time-Resolved Fluorescence (HTRF) assay for the recombinant human Syk enzyme
Format: biochemical
Conditions: recombinant human GST-Syk 5 pM, ATP 25 μM
Method: Homogeneous Time-Resolved Fluorescence (HTRF) Assay for the Recombinant Human Syk Enzyme:
A recombinant GST-hSyk fusion protein was used to measure potency of compounds to inhibit human Syk activity. The recombinant human GST-Syk ([…] #08-176) (5 pM final concentration) was incubated with various concentrations of the inhibitor diluted in DMSO (0.1% final concentration) for 10 minutes at room temperature in 15 mM Tris-HCl (pH 7.5), 0.01% tween 20, 2 mM DTT in 384 well plate format. To initiate the reaction the biotinylated substrate peptide (250 nM final concentration) that contains the phosphorylation site for Syk was added with magnesium (5 mM final concentration) and ATP (25 μM final concentration). Final volume of the reaction was 10 μL. Phosphorylation of the peptide was allowed to proceed for 45 minutes at room temperature. To quench the reaction and detect the phosphorylated product, 2 nM of a Europium-anti-phosphotyrosine antibody (Perkin Elmer #AD0161) and 70 nM SA-APC (Perkin-Elmer #CR130-100) were added together in 15 mM Tris pH 7.5, 40 mM EDTA, 0.01% tween 20. Final volume of the quenching solution was 10 μL. The resulting HTRF signal was measured after 30 minutes on an EnVision (Perkin-Elmer) reader using a time-resolved fluorescence protocol.

[1] = class symbols, read-out: rhSyk activity (IC50)
[2] = 10-dose titration, read-out: rhSyk (nM) IC50

IC50 [1] | IC50 [2] | Compound
≤ 100 nM |  | Cc1cc(Nc2cc(C(F)(F)F)ccn2)nc(-c2cnc(C(C)(O)C3CCC(C(=O)O)C(C)C3)s2)c1 (single isomer, unassigned) [Example 15-7, 4-{1-hydroxy-1-[5-(4-methyl-6-{[4-(trifluoromethyl)pyridin-2-yl]amino}pyridin-2-yl)-1,3-thiazol-2-yl]ethyl}-2-methylcyclohexanecarboxylic acid]
≤ 100 nM | 0.5 nM | Cc1cc(Nc2cc(C(F)F)ccn2)nc(-c2cnc(C(C)(O)[C@H]3CC[C@H](C(=O)O)CC3)s2)c1 (single isomer, unassigned) [Example 14-4, trans-4-{1-[5-(6-{[4-(difluoromethyl)pyridin-2-yl]amino}-4-methylpyridin-2-yl)-1,3-thiazol-2-yl]-1-hydroxyethyl}cyclohexanecarboxylic acid]
≤ 100 nM |  | Cc1ccnc(Nc2cccc(-c3cnc(C(C)(O)[C@H]4CC[C@H](C(=O)O)C(C)(C)C4)s3)n2)c1 (stereo partly drawn) [Example 14-47, (1S,4S)-4-[1-hydroxy-1-(5-{6-[(4-methylpyridin-2-yl)amino]pyridin-2-yl}-1,3-thiazol-2-yl)ethyl]-2,2-dimethylcyclohexanecarboxylic acid]
≤ 100 nM |  | Cc1cc(Nc2cc(C(F)F)ccn2)nc(-c2cnc(C(C)(O)[C@H]3CC[C@H](C(=O)O)C(C)(C)C3)s2)c1 (stereo partly drawn) [Example 14-38, (1S,4S)-4-{1-[5-(6-{[4-(difluoromethyl)pyridin-2-yl]amino}-4-methylpyridin-2-yl)-1,3-thiazol-2-yl]-1-hydroxyethyl}-2,2-dimethylcyclohexanecarboxylic acid]
≤ 100 nM |  | Cc1cc(Nc2cc(C(F)(F)F)ccn2)nc(-c2cnc(C(C)(O)[C@H]3CC[C@H](C(=O)O)C(C)(C)C3)s2)c1 (stereo partly drawn) [Example 14-31, (1S,4S)-4-{1-hydroxy-1-[5-(4-methyl-6-{[4-(trifluoromethyl)pyridin-2-yl]amino}pyridin-2-yl)-1,3-thiazol-2-yl]ethyl}-2,2-dimethylcyclohexanecarboxylic acid]
≤ 100 nM |  | Cc1cc(Nc2cc(C(F)(F)F)ccn2)nc(-c2cnc(C(C)(O)C3CCC(C(=O)O)C(C)C3)s2)c1 (single isomer, unassigned) [Example 15-12, 4-{1-hydroxy-1-[5-(4-methyl-6-{[4-(trifluoromethyl)pyridin-2-yl]amino}pyridin-2-yl)-1,3-thiazol-2-yl]ethyl}-2-methylcyclohexanecarboxylic acid]
≤ 100 nM |  | Cc1cc(Nc2cc(C(F)(F)F)ccn2)nc(-c2cnc(C(C)(O)C3CCC(C(=O)O)C(C)C3)s2)c1 (single isomer, unassigned) [Example 15-3, 4-{1-hydroxy-1-[5-(4-methyl-6-{[4-(trifluoromethyl)pyridin-2-yl]amino}pyridin-2-yl)-1,3-thiazol-2-yl]ethyl}-2-methylcyclohexanecarboxylic acid]
≤ 100 nM |  | CC(C)c1ccnc(Nc2cccc(-c3cnc(C(C)(O)[C@H]4CC[C@H](C(=O)O)CC4)s3)n2)c1 (relative stereo) [Example 14-43, trans-4-{1-hydroxy-1-[5-(6-{[4-(propan-2-yl)pyridin-2-yl]amino}pyridin-2-yl)-1,3-thiazol-2-yl]ethyl}cyclohexanecarboxylic acid]
≤ 100 nM |  | Cc1cc(Nc2cc(C3CC3)ccn2)nc(-c2cnc(C(C)(O)[C@H]3CC[C@H](C(=O)O)CC3)s2)c1 (relative stereo) [Example 14-7, trans-4-[1-(5-{6-[(4-cyclopropylpyridin-2-yl)amino]-4-methylpyridin-2-yl}-1,3-thiazol-2-yl)-1-hydroxyethyl]cyclohexanecarboxylic acid]
≤ 100 nM |  | CCC(O)(c1ncc(-c2cc(C)cc(Nc3cc(C4CC4)ccn3)n2)s1)[C@H]1CC[C@H](C(=O)O)CC1 (mixture of isomers) [Example 1, racemic, trans-4-[1-(5-{6-[(4-Cyclopropylpyridin-2-yl)amino]-4-methylpyridin-2-yl}-1,3-thiazol-2-yl)-1-hydroxypropyl]cyclohexanecarboxylic acid]
100 to 1000 nM |  | CCCCOC(=O)[C@H]1CC[C@H]([C@@](C)(O)c2ncc(-c3cc(C)cc(Nc4cc(C)c(F)cn4)n3)s2)CC1 (single isomer, unassigned) [Example 9, Enantiomer 2, butyl trans-4-[1-(5-{6-[(5-fluoro-4-methylpyridine-2-yl)amino]-4-methylpyridine-2-yl}-1,3-thiazol-2-yl)-1-hydroxyethyl]cyclohexanecarboxylate]
≤ 100 nM |  | CC1(C)C[C@@H](C(C)(O)c2ncc(-c3cccc(Nc4cc(C(F)(F)F)ccn4)n3)s2)CC[C@@H]1C(=O)O (stereo partly drawn) [Example 14-44, (1S,4S)-4-{1-hydroxy-1-[5-(6-{[4-(trifluoromethyl)pyridin-2-yl]amino}pyridin-2-yl)-1,3-thiazol-2-yl]ethyl}-2,2-dimethylcyclohexanecarboxylic acid]
≤ 100 nM |  | Cc1cc(Nc2cc(C(F)(F)F)ccn2)nc(-c2cnc(C(C)(O)C3CCC(C(=O)O)C(C)C3)s2)c1 (centres unmarked) [Example 15-14, 4-{1-hydroxy-1-[5-(4-methyl-6-{[4-(trifluoromethyl)pyridin-2-yl]amino}pyridin-2-yl)-1,3-thiazol-2-yl]ethyl}-2-methylcyclohexanecarboxylic acid]
≤ 100 nM |  | Cc1cc(Nc2cc(C(F)(F)F)ccn2)nc(-c2cnc(C(C)(O)C3CCC(C(=O)O)C(C)C3)s2)c1 (single isomer, unassigned) [Example 15-10, 4-{1-hydroxy-1-[5-(4-methyl-6-{[4-(trifluoromethyl)pyridin-2-yl]amino}pyridin-2-yl)-1,3-thiazol-2-yl]ethyl}-2-methylcyclohexanecarboxylic acid]
≤ 100 nM |  | Cc1cc(Nc2cc(C(F)(F)F)ccn2)nc(-c2cnc(C(C)(O)C3CCN(C(N)=O)C3)s2)c1 (centres unmarked) [Example 13, 3-{1-Hydroxy-1-[5-(4-methyl-6-{[4-(trifluoromethyl)pyridin-2-yl]amino}pyridin-2-yl)-1,3-thiazol-2-yl]ethyl}pyrrolidine-1-carboxamide]
≤ 100 nM |  | CC1(C)C[C@@H](C(C)(O)c2ncc(-c3cccc(Nc4cc(C(F)(F)F)ccn4)n3)s2)CC[C@@H]1C(=O)O (stereo partly drawn) [Example 14-45, (1S,4S)-4-{1-hydroxy-1-[5-(6-{[4-(trifluoromethyl)pyridin-2-yl]amino}pyridin-2-yl)-1,3-thiazol-2-yl]ethyl}-2,2-dimethylcyclohexanecarboxylic acid]
≤ 100 nM |  | Cc1cc(Nc2cc(OC(C)C)ccn2)nc(-c2cnc(C(O)([C@H]3CC[C@H](C(=O)O)CC3)C(F)(F)F)s2)c1 (single isomer, unassigned) [Example 14-25, trans-4-{2,2,2-trifluoro-1-hydroxy-1-[5-(4-methyl-6-{[4-(propan-2-yloxy)pyridin-2-yl]amino}pyridin-2-yl)-1,3-thiazol-2-yl]ethyl}cyclohexanecarboxylic acid]
≤ 100 nM | 6 nM | CC1(C)C[C@@H](C(C)(O)c2ncc(-c3cccc(Nc4cc(C(F)F)ccn4)n3)s2)CC[C@@H]1C(=O)O (stereo partly drawn) [Example 14-50, (1S,4S)-4-{1-[5-(6-{[4-(difluoromethyl)pyridin-2-yl]amino}pyridin-2-yl)-1,3-thiazol-2-yl]-1-hydroxyethyl)-2,2-dimethylcyclohexanecarboxylic acid]
≤ 100 nM | 1.1 nM | Cc1cc(Nc2cc(C(F)(F)F)ccn2)nc(-c2cnc(C(O)[C@H]3CC[C@H](C(=O)O)CC3)s2)c1 (single isomer, unassigned) [Example 14-28, trans-4-{hydroxy[5-(4-methyl-6-{[4-(trifluoromethyl)pyridin-2-yl]amino}pyridin-2-yl)-1,3-thiazol-2-yl]methyl}cyclohexanecarboxylic acid]
≤ 100 nM |  | Cc1cc(Nc2cc(C(F)(F)F)ccn2)nc(-c2cnc(C(O)[C@H]3CC[C@H](C(=O)O)CC3)s2)c1 (single isomer, unassigned) [Example 14-29, trans-4-{hydroxy[5-(4-methyl-6-{[4-(trifluoromethyl)pyridin-2-yl]amino}pyridin-2-yl)-1,3-thiazol-2-yl]methyl}cyclohexanecarboxylic acid]
≤ 100 nM |  | Cc1cc(Nc2cc(C(F)(F)F)ccn2)nc(-c2cnc(C(C)(O)[C@@H]3CC[C@H](C(=O)O)C(C)(C)C3)s2)c1 (stereo partly drawn) [Example 14-30, (1S,4R)-4-{1-hydroxy-1-[5-(4-methyl-6-{[4-(trifluoromethyl)pyridin-2-yl]amino}pyridin-2-yl)-1,3-thiazol-2-yl]ethyl}-2,2-dimethylcyclohexanecarboxylic acid]
≤ 100 nM |  | Cc1ccnc(Nc2cc(C)cc(-c3cnc(C(C)(O)[C@H]4CC[C@H](C(=O)O)C(C)(C)C4)s3)n2)c1 (stereo partly drawn) [Example 14-34, (1S,4S)-4-[1-hydroxy-1-(5-{4-methyl-6-[(4-methylpyridin-2-yl)amino]pyridin-2-yl}-1,3-thiazol-2-yl)ethyl]-2,2-dimethylcyclohexanecarboxylic acid]
≤ 100 nM |  | CC(O)(c1ncc(-c2cccc(Nc3cc(C(F)(F)F)ccn3)n2)s1)[C@H]1CC[C@H](C(=O)O)CC1 (single isomer, unassigned) [Example 7, trans-4-{(1R or 1S)-1-hydroxy-1-[5-(6-{[4-(trifluoromethyl)pyridin-2-yl]amino}pyridin-2-yl)-1,3-thiazol-2-yl]ethyl}cyclohexanecarboxylic acid]

Reference: patent publication US9120785B2, “Pyridyl aminopyridines as Syk inhibitors” (Merck Sharp & Dohme Corp., priority 2011, dated 2015)
